The results in this text go back to patent publication US8017391B2, “Human liver cancer cell line” (Univesity of Florida Research Foundation, Inc., priority 2006, dated 2011).

This experiment deals with LH86 cells or Huh7.5 cells. Description: Tumor growth of implanted HCV susceptible cell lines in immune deficient mice. It is filed as in vivo. The settings on record: injection of human EGF to NOD-SCID mice bearing subcutaneous tumor cells. The method, then:
To establish a mouse model that is capable of supporting the whole viral life cycle, the present inventors implanted HCV susceptible cell lines (LH86 cells of the present invention or Huh7.5 cells) to immune deficient mice (NOD-SCID). When 1×10^6 cells were injected subcutaneously into the mice, visible tumor (0.5 cm) formed in one week, and the tumor continued to grow to 5 cm in size in 6 weeks. For LH86 cells, 5×10^6 tumor cells must be injected to achieve a similar tumor growth pattern.

For the substance “human EGF: human EGF injected to mice (NSDSECPLSHDGYCLHDGVCMYIEALDKYACNCVVGYIGERCQYRDLKWWELR; UniProt P01133 971-1023, looked up)”, the tumor growth rate entry is “significantly accelerate”.
